Assays:
[1] = test system: mouse 3T3 cell; details: literature; cited from earlier work
[2] = test system: B16/F10 cells; test: Chemotactic motility of B16/F10 cells through MATRI-GEL-coated transwell filter; type: cell-based, mouse
Protocol: (§1) The assays for determining chemotactic cell motility and chemoinvasion can be performed using transwell plates with a polycarbonate membrane filter (pore size 8 μm) (Costar Scientific, Cambridge, Mass.). Aliguots, e.g., 50 μl, of an aqueous solution of MATRI-GEL (Collaborative Research, Bedford, Mass.) containing SPN-1-P or other inhibitor (e.g., 20 μg/ml for chemotactic motility assay or 200 μg/ml for chemoinvasion assay), is added to each well and dried overnight. The filter is then fitted onto the lower chamber plate. The lower chamber can contain conditioned medium (CM) (i.e., medium used for splenic stromal cell culture, and containing motility factor secreted by these cells), e.g., 0.6 ml, with or without SPN-1-P or other inhibitor. To the upper chamber is added, e.g., about 100 μl, of cell suspension (5×10^4 cells/ml for invasion assay, 5×10^5 cells/ml for motility assay), which is then incubated in 5% CO2 at 37° C. for 70-72 hours (invasion assay) or 20 hours (motility assay). After incubation, cells remaining in the upper chamber are wiped off with a cotton swab, and cells which had migrated to the lower chamber side of the filter are fixed in methanol for 30 seconds and stained with 0.05% toluidine blue. The filter is removed, the stain is solubilized in 10% acetic acid (e.g., 0.1 ml for invasion assay, 0.5 ml for motility assay), and color intensity (optical density) is quantitated by ELISA reading at 630 nm. Using SPN-1-P, a linear relationship was observed between cell number and toluidine blue optical density (FIG. 7).
(§2) Assays were performed using transwell plates with polycarbonate membrane filters (pore size 8 μm) (Costar Scientific, Cambridge, Mass.). 50 μl aliguots of an aqueous solution of MATRI-GEL (Collaborative Research, Bedford, Mass.) containing 20 μg/ml (for chemotactic motility assay) or 200 μg/ml (for chemoinvasion assay) were added to each well and dried overnight. The filter was fitted onto the lower chamber plate. The lower chamber contained 0.6 ml conditioned medium (CM) (i.e., medium used for splenic stromal cell culture, and containing motility factor secreted by these cells) with or without the suspected inhibitor. To the upper chamber was added 100 μl of cell suspension (5×10^4 cells/ml for invasion assay, 5×10^5 cells/ml for motility assay), which was then incubated in 5% CO2 at 37° C. for 70-72 hours (invasion assay) or 20 hours (motility assay). After incubation, cells remaining in the upper chamber were wiped off with a cotton swab, and cells which had migrated to the lower chamber side of the filter were fixed in methanol for 30 seconds and stained with 0.05% toluidine blue. The filter was removed, the stain was solubilized in 10% acetic acid (0.1 ml for invasion assay, 0.5 ml for motility assay), and color intensity (optical density) was quantitated by ELISA reading at 630 nm. A linear relationship was observed between cell number and toluidine blue optical density (FIG. 7.).
(§3) In experiments with different quantities of MATRI-GEL, cell migration through transwell filter was maximal with 1 μg/well was applied, and when CM was used (FIG. 8). Therefore, chemotactic cell motility, as affected by various SPN derivatives, was assayed under these conditions.
(§4) *Mean ± S.E. of percent relative to control (n = 4). Actual O.D. value
(§5) and 0.147 (HT1080). 6 × 10^4 cells were placed on a transwell
(§6) filter coated with 1.0 μg MATRIGEL in the upper chamber, and cultured
(§7) for 18 hours in the presence of CM and SPN1-P in the lower chamber.

[3] = test system: Balb/c 3T3 fibroblasts; test: Chemotactic motility of Balb/c 3T3 fibroblasts through MATRI-GEL-coated transwell filter; type: cell-based; details: Mus musculus, 18 hours, relative to control, mean ± S.E., n = 4
Protocol: as §1, §2, §3, §4, §5, §6, §7

SMILES | Mouse 3T3 cell growth [1] | activity at 0.001 µM ([2]; Mus musculus, B16-F10, F10, 0.001 μM, 18 hours, relative to control, mean ± S.E., n = 4) | activity at 0.01 µM ([2]; Mus musculus, B16-F10, F10, 0.01 μM, 18 hours, relative to control, mean ± S.E., n = 4) | activity at 0.1 µM ([2]; Mus musculus, B16-F10, F10, 0.1 μM, 18 hours, relative to control, mean ± S.E., n = 4) | activity at 1 µM ([2]; Mus musculus, B16-F10, F10, 1.0 μM, 18 hours, relative to control, mean ± S.E., n = 4) | Susceptibility of B16/F10 cells (chemotactic motility) ([2]; Table V, in words) | activity at 0.001 µM ([3]; BALB/c3T3, 0.001 μM) | activity at 0.01 µM ([3]; BALB/c3T3, 0.01 μM) | activity at 0.1 µM ([3]; BALB/c3T3, 0.1 μM) | activity at 1 µM ([3]; BALB/c3T3, 1.0 μM) | activity at 5 µM ([3]; BALB/c3T3, 5.0 μM)
CCCCCCCCCCCCC/C=C/[C@@H](O)[C@@H](N)CO [SPN, sphingosine] | stimulation of mouse 3T3 cell growth |  |  |  |  |  |  |  |  |  | 
CCCCCCCCCCCCC/C=C/[C@@H](O)[C@@H](N)COP(=O)(O)O [SPN-1-P, sphingosine-1-phosphate] |  | 96 ± 21% | 10 ± 4% | 4 ± 2% | 4 ± 1% | high | 119 ± 9% | 125 ± 5% | 101 ± 10% | 40 ± 1% | 11 ± 1%

— patent US5391800A, “Method for inhibition of cell motility by sphingosine-1-phosphate, its derivatives and mimetics and method of synthesizing sphingosine-1-phosphate and its derivatives” (The Biomembrane Institute, priority 1993, dated 1995)
